Assay type in all cases: cell-based
One assay addresses T1, Ba/F3 cells with EGFR WT (Homo sapiens, UniProt P00533).
T1 construct: expressed in transfected cells; host or cells: Ba/F3 (murine pro-B cells), retroviral transduction, puromycin selection, maintained with EGF
The assay can be described thus: EGFR activity: Ba/F3 cell viability (CellTiter-Glo, 72 h), EGFR WT. Conditions: read-out: BaF3 WT IC50. For orientation: Cellular ATP, detected with luciferase, serves as a proxy for viable cell number.

The next assay deals with T2, pEGFR in CUTO14 cells (Homo sapiens, UniProt P00533, DUP767-769).
T2 construct: endogenous in cells; host or cells: CUTO14 cells
Kind of assay: Inhibitor activity on EGFR phosphorylation (pEGFR AlphaLISA, 2 h), CUTO14 cells. The protocol: CUTO14 cells were obtained from Dr. Robert C. Doebele at the University of Colorado.
Shake 350 rpm for 1 hr in the dark • 3.4 Prepare donor mix under low light conditions prior to use. Dispense 5 μL of donor mix to all the wells. Mix well on the shaker, seal and wrap in aluminum foil and incubate 1.5 hrs at room temperature in the dark • 3.5 Transfer 18.5 μL mixture to OptiPlate 384, and read using an Envision.
(In general: Bead proximity is the source of the signal in Alpha formats.)

For assay [1], the target named is T3, Ba/F3 cells with EGFR exon 20 ASV Ins V769_D770 (Homo sapiens, UniProt P00533, INS769ASV).
T3 construct: expressed in transfected cells; host or cells: Ba/F3 (murine pro-B cells), retroviral transduction, puromycin selection, IL3-independent pool
Kind of assay: EGFR activity: Ba/F3 cell viability (CellTiter-Glo, 72 h), EGFR exon 20 ASV insertion. Conditions: EGFR exon 20 ASV Ins V769_D770, cell viability, read-out: BaF3 ASV IC50.

In assay [2] the target is T4, Ba/F3 cells with EGFR exon 20 NPG Ins D770_N771 (Homo sapiens, UniProt P00533, INS770NPG).
T4 construct: expressed in transfected cells; host or cells: Ba/F3 (murine pro-B cells), retroviral transduction, puromycin selection, IL3-independent pool
Kind of assay: EGFR activity: Ba/F3 cell viability (CellTiter-Glo, 72 h), EGFR exon 20 NPG insertion. Conditions: EGFR exon 20 NPG Ins D770_N771, cell viability, read-out: BaF3 NPG IC50.

Consider 22 compounds from patent US20230364070A1, “PYRROLO[3,2-C]PYRIDIN-4-ONE DERIVATIVES USEFUL IN THE TREATMENT OF CANCER” (Scorpion Therapeutics, Inc., priority 2020, published 2023).

Each structure is given as a SMILES string.

What is called IC50 is the concentration at which inhibition is half-maximal.

T3 sequence (P00533 with tags, fused parts or gaps INS769ASV): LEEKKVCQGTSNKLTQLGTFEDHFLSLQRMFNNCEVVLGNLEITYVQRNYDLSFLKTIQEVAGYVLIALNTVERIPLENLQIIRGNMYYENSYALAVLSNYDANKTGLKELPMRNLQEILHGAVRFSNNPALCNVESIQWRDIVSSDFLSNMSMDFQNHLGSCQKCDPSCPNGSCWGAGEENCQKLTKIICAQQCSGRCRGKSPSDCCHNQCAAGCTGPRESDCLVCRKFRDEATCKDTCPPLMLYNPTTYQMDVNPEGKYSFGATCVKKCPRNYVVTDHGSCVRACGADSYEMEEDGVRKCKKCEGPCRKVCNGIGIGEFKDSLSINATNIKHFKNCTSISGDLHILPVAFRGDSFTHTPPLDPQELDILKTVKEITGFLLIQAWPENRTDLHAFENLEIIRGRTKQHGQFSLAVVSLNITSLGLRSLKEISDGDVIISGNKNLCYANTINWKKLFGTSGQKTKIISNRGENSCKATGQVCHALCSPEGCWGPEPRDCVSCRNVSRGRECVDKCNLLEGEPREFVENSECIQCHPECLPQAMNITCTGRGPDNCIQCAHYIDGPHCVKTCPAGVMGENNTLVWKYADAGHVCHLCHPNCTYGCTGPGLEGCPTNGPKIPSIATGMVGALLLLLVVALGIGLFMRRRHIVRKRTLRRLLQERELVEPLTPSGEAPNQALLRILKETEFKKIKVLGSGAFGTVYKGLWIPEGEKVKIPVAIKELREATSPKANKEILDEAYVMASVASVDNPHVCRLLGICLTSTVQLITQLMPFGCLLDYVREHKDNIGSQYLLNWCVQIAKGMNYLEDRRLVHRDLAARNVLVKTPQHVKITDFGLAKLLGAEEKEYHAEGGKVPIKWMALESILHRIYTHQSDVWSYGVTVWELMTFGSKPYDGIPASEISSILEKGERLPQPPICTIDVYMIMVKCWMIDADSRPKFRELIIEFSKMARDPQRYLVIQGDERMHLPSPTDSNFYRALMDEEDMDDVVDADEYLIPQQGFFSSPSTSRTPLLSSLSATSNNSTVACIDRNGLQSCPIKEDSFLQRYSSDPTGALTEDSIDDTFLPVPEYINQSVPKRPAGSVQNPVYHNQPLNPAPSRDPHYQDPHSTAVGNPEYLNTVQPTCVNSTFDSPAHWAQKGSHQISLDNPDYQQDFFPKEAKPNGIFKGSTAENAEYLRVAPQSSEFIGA
T2 sequence (P00533 with tags, fused parts or gaps DUP767-769): as the sequence (P00533 with tags, fused parts or gaps INS769ASV) above
T4 sequence (P00533 with tags, fused parts or gaps INS770NPG): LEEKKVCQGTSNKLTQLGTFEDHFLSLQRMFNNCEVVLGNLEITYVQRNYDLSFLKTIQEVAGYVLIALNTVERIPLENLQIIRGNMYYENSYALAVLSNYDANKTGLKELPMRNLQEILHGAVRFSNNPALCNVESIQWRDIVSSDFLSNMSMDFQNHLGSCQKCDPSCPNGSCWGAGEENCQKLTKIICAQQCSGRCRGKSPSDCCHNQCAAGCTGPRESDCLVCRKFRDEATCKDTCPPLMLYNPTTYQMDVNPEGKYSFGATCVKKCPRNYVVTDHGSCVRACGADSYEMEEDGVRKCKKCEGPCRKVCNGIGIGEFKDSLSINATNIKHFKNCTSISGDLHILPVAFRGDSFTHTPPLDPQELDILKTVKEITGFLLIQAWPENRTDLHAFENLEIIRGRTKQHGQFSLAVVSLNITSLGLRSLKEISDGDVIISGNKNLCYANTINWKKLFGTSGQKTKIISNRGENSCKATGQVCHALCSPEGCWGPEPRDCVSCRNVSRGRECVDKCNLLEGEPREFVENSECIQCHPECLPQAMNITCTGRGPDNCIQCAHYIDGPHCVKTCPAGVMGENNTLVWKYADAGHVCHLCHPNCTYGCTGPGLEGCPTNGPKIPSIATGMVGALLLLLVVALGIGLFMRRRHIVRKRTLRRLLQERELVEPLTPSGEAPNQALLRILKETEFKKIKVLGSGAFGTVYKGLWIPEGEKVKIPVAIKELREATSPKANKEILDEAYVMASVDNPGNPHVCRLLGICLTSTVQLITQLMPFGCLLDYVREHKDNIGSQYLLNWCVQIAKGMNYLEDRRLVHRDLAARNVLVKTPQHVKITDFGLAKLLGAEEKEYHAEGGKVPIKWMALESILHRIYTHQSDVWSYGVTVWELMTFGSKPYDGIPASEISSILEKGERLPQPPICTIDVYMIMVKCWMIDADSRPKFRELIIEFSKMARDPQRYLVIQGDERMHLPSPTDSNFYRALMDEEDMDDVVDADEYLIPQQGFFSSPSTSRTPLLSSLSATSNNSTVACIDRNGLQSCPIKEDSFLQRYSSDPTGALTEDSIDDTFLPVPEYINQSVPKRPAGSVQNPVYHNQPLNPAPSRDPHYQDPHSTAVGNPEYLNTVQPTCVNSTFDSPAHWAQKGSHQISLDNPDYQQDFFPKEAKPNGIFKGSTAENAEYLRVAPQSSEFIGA
T1 sequence (P00533 25-1210): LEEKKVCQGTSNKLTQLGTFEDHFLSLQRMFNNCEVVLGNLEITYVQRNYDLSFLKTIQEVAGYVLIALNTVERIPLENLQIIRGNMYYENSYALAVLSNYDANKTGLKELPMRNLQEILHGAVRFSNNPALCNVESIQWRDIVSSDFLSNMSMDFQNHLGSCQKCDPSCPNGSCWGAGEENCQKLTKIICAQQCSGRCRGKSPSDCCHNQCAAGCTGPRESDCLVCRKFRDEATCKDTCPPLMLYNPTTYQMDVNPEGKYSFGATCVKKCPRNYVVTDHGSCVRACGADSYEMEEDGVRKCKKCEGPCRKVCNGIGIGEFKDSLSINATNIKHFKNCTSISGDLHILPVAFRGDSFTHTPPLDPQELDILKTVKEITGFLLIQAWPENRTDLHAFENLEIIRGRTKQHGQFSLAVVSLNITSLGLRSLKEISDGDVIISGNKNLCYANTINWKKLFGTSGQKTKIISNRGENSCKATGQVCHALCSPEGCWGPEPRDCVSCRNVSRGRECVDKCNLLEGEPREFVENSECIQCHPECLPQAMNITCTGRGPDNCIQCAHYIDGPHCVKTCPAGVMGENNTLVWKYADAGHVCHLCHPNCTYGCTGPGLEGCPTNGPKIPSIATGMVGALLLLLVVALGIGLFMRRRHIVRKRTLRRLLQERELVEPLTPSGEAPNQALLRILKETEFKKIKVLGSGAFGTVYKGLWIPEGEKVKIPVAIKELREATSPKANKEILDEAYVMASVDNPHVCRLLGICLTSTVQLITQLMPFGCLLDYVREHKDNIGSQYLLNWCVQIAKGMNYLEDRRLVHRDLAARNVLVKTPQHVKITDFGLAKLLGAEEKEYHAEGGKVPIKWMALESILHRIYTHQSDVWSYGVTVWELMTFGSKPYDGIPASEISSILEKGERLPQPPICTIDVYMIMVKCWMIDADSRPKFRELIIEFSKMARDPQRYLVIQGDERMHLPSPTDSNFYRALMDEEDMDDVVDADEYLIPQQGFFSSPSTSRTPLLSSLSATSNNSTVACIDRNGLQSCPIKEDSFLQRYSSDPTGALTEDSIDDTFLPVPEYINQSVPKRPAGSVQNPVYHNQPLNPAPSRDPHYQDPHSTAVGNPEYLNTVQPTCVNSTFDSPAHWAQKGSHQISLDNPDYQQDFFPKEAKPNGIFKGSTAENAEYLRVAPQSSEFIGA

On to `COc1c(F)cccc1Nc1c(-c2ccncc2C#C[C@@]2(C)CCCN2C(=O)C#CCN(C)C)[nH]c2c1C(=O)NCC2` [compound 434], for which the IC50 was 0.1 to 1 µM on Ba/F3 cells with EGFR WT, under 0.1 µM against pEGFR in CUTO14 cells, under 0.1 µM in assay [1] and under 0.1 µM in assay [2]. Regarding `C=CC(=O)NC1(C#Cc2cnccc2-c2[nH]c3c(c2Nc2cccc(Cl)c2OC)C(=O)NCC3)CCOCC1` [compound 382], the concentration for half-maximal inhibition (IC50) at Ba/F3 cells with EGFR WT was 0.1 to 1 µM; against pEGFR in CUTO14 cells it was under 0.1 µM; in assay [1], under 0.1 µM; in assay [2] it was under 0.1 µM. As for `C=CC(=O)NC1(C#Cc2cnccc2-c2[nH]c3c(c2Nc2cccc(Cl)c2OC)C(=O)NCC3)CC(F)(F)C1` [compound 400], the IC50 is 0.1 to 1 µM at Ba/F3 cells with EGFR WT, under 0.1 µM against pEGFR in CUTO14 cells, under 0.1 µM in assay [1] and under 0.1 µM in assay [2]. Consider `C=CC(=O)NC1(C#Cc2cnccc2-c2[nH]c3c(c2Nc2cccc(F)c2OC)C(=O)NCC3)CCOCC1` [compound 383], for which the IC50 at Ba/F3 cells with EGFR WT is over 1 µM; at pEGFR in CUTO14 cells it was 0.1 to 1 µM; in assay [1], 0.1 to 1 µM; in assay [2] it was under 0.1 µM.

Take `C=CC(=O)N[C@]1(C#Cc2cnccc2-c2[nH]c3c(c2Nc2cccc(F)c2C)C(=O)NCC3)CCOC1` [compound 387]: the IC50 is 0.1 to 1 µM on Ba/F3 cells with EGFR WT, under 0.1 µM against pEGFR in CUTO14 cells, under 0.1 µM in assay [1] and under 0.1 µM in assay [2].

As for `C=CC(=O)N1[C@H](C)CC[C@H]1C#Cc1cnccc1-c1[nH]c2c(c1Nc1cccc(F)c1OC)C(=O)NCC2` [compound 257], the IC50 (at Ba/F3 cells with EGFR WT; against pEGFR in CUTO14 cells; in assay [1]; in assay [2]) was under 0.1 µM throughout. Take `Cc1c(F)cccc1Nc1c(-c2ccncc2OC[C@@H]2CCCN2C(=O)/C=C/CN(C)C)[nH]c2c1C(=O)NCC2` [compound 217, 2-(3-{[(2S)-1-[(2E)-4-(dimethylamino)but-2-enoyl]pyrrolidin-2-yl]methoxy}pyridin-4-yl)-3-[(3-fluoro-2-methylphenyl)amino]-1H,5H,6H,7H-pyrrolo[3,2-c] pyridin-4-one]: the IC50 against pEGFR in CUTO14 cells was under 0.1 µM.

Take `C=CC(=O)N1CC(C)(C)C1COc1cnccc1-c1[nH]c2c(c1Nc1cccc(Cl)c1OC)C(=O)NCC2` (single isomer, unassigned) [compound 513]: on pEGFR in CUTO14 cells, the IC50 is under 0.1 µM. Regarding `CC#CC(=O)N1CC[C@@H]1COc1cnccc1-c1[nH]c2c(c1Nc1cccc(Cl)c1CC)C(=O)NCC2` [compound 348, 2-(3-{[(2R)-1-(but-2-ynoyl)azetidin-2-yl]methoxy}pyridin-4-yl)-3-[(3-chloro-2-ethylphenyl)amino]-1H,5H,6H,7H-pyrrolo[3,2-c]pyridin-4-one], the IC50 against pEGFR in CUTO14 cells is under 0.1 µM. `COc1c(F)cccc1Nc1c(-c2ccncc2C#C[C@H]2C[C@@H]3C[C@@H]3N2C(=O)/C=C/CN(C)C)[nH]c2c1C(=O)NCC2` [compound 345, 2-(3-{2-[(1S,3R,5S)-2-[(2E)-4-(dimethylamino)but-2-enoyl]-2-azabicyclo[3.1.0]hexan-3-yl]ethynyl}pyridin-4-yl)-3-[(3-fluoro-2-methoxyphenyl)amino]-1H,5H,6H,7H-pyrrolo[3,2-c]pyridin-4-one] yielded a concentration for half-maximal inhibition (IC50) against pEGFR in CUTO14 cells of under 0.1 µM.

As for `C=CC(=O)N1CC(C)(C)[C@H]1C#Cc1cnccc1-c1[nH]c2c(c1Nc1cccc(Cl)c1OC)C(=O)NCC2` [compound 232, 3-[(3-chloro-2-methoxyphenyl)amino]-2-(3-{2-[(2R)-3,3-dimethyl-1-(prop-2-enoyl)azetidin-2-yl]ethynyl}pyridin-4-yl)-1H,5H,6H,7H-pyrrolo[3,2-c]pyridin-4-one], the half-maximal inhibitory concentration (IC50) against pEGFR in CUTO14 cells was under 0.1 µM. Consider `COc1c(Cl)cccc1Nc1c(-c2ccncc2C#C[C@@]2(C)CCCN2C(=O)/C=C/CN(C)C)[nH]c2c1C(=O)NCC2` [compound 362, 3-[(3-chloro-2-methoxyphenyl)amino]-2-(3-{2-[(2R)-1-[(2E)-4-(dimethylamino)but-2-enoyl]-2-methylpyrrolidin-2-yl]ethynyl}pyridin-4-yl)-1H,5H,6H,7H-pyrrolo[3,2-c]pyridin-4-one], for which the IC50 against pEGFR in CUTO14 cells is under 0.1 µM. At pEGFR in CUTO14 cells, `CC#CC(=O)N1CC[C@H]1COc1cnccc1-c1[nH]c2c(c1Nc1cccc(Cl)c1OC)C(=O)NCC2` [compound 288, 2-(3-{[(2S)-1-(but-2-ynoyl)azetidin-2-yl]methoxy}pyridin-4-yl)-3-[(3-chloro-2-methoxyphenyl)amino]-1H,5H,6H,7H-pyrrolo[3,2-c]pyridin-4-one] gave an IC50 of under 0.1 µM.

Consider `C=CC(=O)N1CC(C)(C)[C@H]1COc1cnccc1-c1[nH]c2c(c1Nc1cccc(Cl)c1OC)C(=O)NCC2` [compound 512, 3-[(3-chloro-2-methoxyphenyl)amino]-2-(3-{[(2S)-3,3-dimethyl-1-(prop-2-enoyl)azetidin-2-yl]methoxy}pyridin-4-yl)-1H,5H,6H,7H-pyrrolo[3,2-c]pyridin-4-one], for which the IC50 at pEGFR in CUTO14 cells is under 0.1 µM. On the same count and under the same terms, under `C=C(F)C(=O)N1CC[C@H]1COc1cnccc1-c1[nH]c2c(c1Nc1cccc(Cl)c1OC)C(=O)NCC2` [compound 363, 3-[(3-chloro-2-methoxyphenyl)amino]-2-(3-{[(2S)-1-(2-fluoroprop-2-enoyl)azetidin-2-yl]methoxy}pyridin-4-yl)-1H,5H,6H,7H-pyrrolo[3,2-c]pyridin-4-one] stands under 0.1 µM. Turning to `CC#CC(=O)NC(C)(C)C#Cc1cnccc1-c1[nH]c2c(c1Nc1cccc(F)c1OC)C(=O)NCC2` [compound 302, N-[4-(4-{3-[(3-fluoro-2-methoxyphenyl)amino]-4-oxo-1H,5H,6H,7H-pyrrolo[3,2-c]pyridin-2-yl}pyridin-3-yl)-2-methylbut-3-yn-2-yl]but-2-ynamide], at pEGFR in CUTO14 cells, the IC50 is under 0.1 µM.

As for `C=CC(=O)N1[C@@H](COc2cnccc2-c2[nH]c3c(c2Nc2cccc(F)c2OC)C(=O)NCC3)C[C@H]1C` (relative stereo) [compound 332], the IC50 on pEGFR in CUTO14 cells is under 0.1 µM. On pEGFR in CUTO14 cells, `C=CC(=O)N1CC(C)(C)C1C#Cc1cnccc1-c1[nH]c2c(c1Nc1cccc(Cl)c1OC)C(=O)NCC2` (single isomer, unassigned) [compound 233] displayed an IC50 of under 0.1 µM. Take `C=CC(=O)N1CCC1(C)COc1cnccc1-c1[nH]c2c(c1Nc1cccc(Cl)c1OC)C(=O)NCC2` (single isomer, unassigned) [compound 511]: at pEGFR in CUTO14 cells, the IC50 is under 0.1 µM.

Compound `C=CC(=O)N1[C@H]2CC[C@H](C2)[C@@H]1COc1cnccc1-c1[nH]c2c(c1Nc1cccc(Cl)c1OC)C(=O)NCC2` [compound 274, 3-[(3-chloro-2-methoxyphenyl)amino]-2-(3-{[(1S,3R,4R)-2-(prop-2-enoyl)-2-azabicyclo[2.2.1]heptan-3-yl]methoxy}pyridin-4-yl)-1H,5H,6H,7H-pyrrolo[3,2-c]pyridin-4-one] had an IC50 against pEGFR in CUTO14 cells of under 0.1 µM. On to `C=CC(=O)N1CC(C)(C)C1C#Cc1cnccc1-c1[nH]c2c(c1Nc1cccc(F)c1OC)C(=O)NCC2` (single isomer, unassigned) [compound 249], for which the IC50 at pEGFR in CUTO14 cells is under 0.1 µM. At pEGFR in CUTO14 cells, `C=C(F)C(=O)N1CC[C@H]1COc1cnccc1-c1[nH]c2c(c1Nc1cccc(F)c1OC)C(=O)NCC2` [compound 296, 3-[(3-fluoro-2-methoxyphenyl)amino]-2-(3-{[(2S)-1-(2-fluoroprop-2-enoyl)azetidin-2-yl]methoxy}pyridin-4-yl)-1H,5H,6H,7H-pyrrolo[3,2-c]pyridin-4-one] yielded an IC50 of under 0.1 µM.
